In ChEMBL document CHEMBL3739403 (Bioorg Med Chem, 2016):

What follows are compounds tested against T1, Prothrombin (Homo sapiens, UniProt P00734) (assay: Inhibition of thrombin (unknown origin)). Conditions: not given.

| IC50 [nM] | Structure (SMILES) |
| --- | --- |
| 6.17 | CCn1c(CNc2ccc(C(=N)N)cc2)nc2cc(C(=O)N(CCC(=O)O)c3ccccc3C(F)(F)F)ccc21 |
| 36.3 | CCCCn1c(CNc2ccc(C(=N)N)cc2F)nc2cc(C(=O)N(CCC(=O)O)c3ccc(F)c(Cl)c3)ccc21 |
| 18.6 | CC(C)n1c(CNc2ccc(C(=N)N)cc2)nc2cc(C(=O)N(CCC(=O)O)c3ccc(F)c(Cl)c3)ccc21 |
| 12.3 | Cn1c(CNc2ccc(C(=N)N)cc2)nc2cc(C(=O)N(CCC(=O)O)c3cccc(C(F)(F)F)c3)ccc21 |
| 26.3 | CCn1c(CNc2ccc(C(=N)N)cc2)nc2cc(C(=O)N(CCC(=O)O)c3cccc(C(F)(F)F)c3)ccc21 |
| 39.8 | CCCCn1c(CNc2ccc(C(=N)N)cc2)nc2cc(C(=O)N(CCC(=O)O)c3ccc(F)c(Cl)c3)ccc21 |
| 27.5 | N=C(N)c1ccc(NCc2nc3cc(C(=O)N(CCC(=O)O)c4ccc(F)c(Cl)c4)ccc3n2C2CC2)cc1 |
| 7.94 | CCn1c(CNc2ccc(C(=N)N)cc2)nc2cc(C(=O)N(CCC(=O)O)c3cc(F)cc(F)c3)ccc21 |
| 11.5 | Cn1c(CNc2ccc(C(=N)N)cc2F)nc2cc(C(=O)N(CCC(=O)O)c3ccc(F)c(Cl)c3)ccc21 |
| 3.55 | CCn1c(CNc2ccc(C(=N)N)cc2)nc2cc(C(=O)N(CCC(=O)O)c3ccccc3F)ccc21 |
| 5.37 | Cn1c(CNc2ccc(C(=N)N)cc2)nc2cc(C(=O)N(CCC(=O)O)c3cccc(F)c3)ccc21 |
| 11 | CCCn1c(CNc2ccc(C(=N)N)cc2)nc2cc(C(=O)N(CCC(=O)O)c3ccc(F)c(Cl)c3)ccc21 |
| 24 | Cc1ccnc(N(CCC(=O)O)C(=O)c2ccc3c(c2)nc(CNc2ccc(C(=N)N)cc2F)n3C)c1 |
| 117 | CCCCCn1c(CNc2ccc(C(=N)N)cc2)nc2cc(C(=O)N(CCC(=O)O)c3ccc(F)c(Cl)c3)ccc21 |
| 9.55 | CCn1c(CNc2ccc(C(=N)N)cc2)nc2cc(C(=O)N(CCC(=O)O)c3ccc(F)c(F)c3)ccc21 |
| 17.4 | CC(C)n1c(CNc2ccc(C(=N)N)cc2F)nc2cc(C(=O)N(CCC(=O)O)c3ccc(F)c(Cl)c3)ccc21 |
| 26.9 | N=C(N)c1ccc(NCc2nc3cc(C(=O)N(CCC(=O)O)c4ccc(F)c(Cl)c4)ccc3n2C2CC2)c(F)c1 |
| 4.27 | CCn1c(CNc2ccc(C(=N)N)cc2)nc2cc(C(=O)N(CCC(=O)O)c3ccc(F)cc3)ccc21 |
| 10.5 | Cn1c(CNc2ccc(C(=N)N)cc2)nc2cc(C(=O)N(CCC(=O)O)c3cc(F)cc(F)c3)ccc21 |
| 19.1 | CCn1c(CNc2ccc(C(=N)N)cc2F)nc2cc(C(=O)N(CCC(=O)O)c3cc(C)ccn3)ccc21 |
| 28.2 | CCCn1c(CNc2ccc(C(=N)N)cc2F)nc2cc(C(=O)N(CCC(=O)O)c3ccc(F)c(Cl)c3)ccc21 |
| 7.41 | CCn1c(CNc2ccc(C(=N)N)cc2)nc2cc(C(=O)N(CCC(=O)O)c3cccc(F)c3)ccc21 |
| 117 | CCn1c(CNc2ccc(C(=N)N)cc2)nc2cc(C(=O)N(CCC(=O)O)c3ccc(OC(F)(F)F)cc3)ccc21 |
| 174 | CCCCCn1c(CNc2ccc(C(=N)N)cc2F)nc2cc(C(=O)N(CCC(=O)O)c3ccc(F)c(Cl)c3)ccc21 |
| 8.91 | CCn1c(CNc2ccc(C(=N)N)cc2)nc2cc(C(=O)N(CCC(=O)O)c3ccc(F)c(Cl)c3)ccc21 |
| 200 | CCn1c(CNc2ccc(C(=N)N)cc2)nc2cc(C(=O)N(CCC(=O)O)c3ccc(C(F)(F)F)cc3)ccc21 |
| 8.32 | Cn1c(CNc2ccc(C(=N)N)cc2)nc2cc(C(=O)N(CCC(=O)O)c3ccc(F)c(Cl)c3)ccc21 |
| 2.04 | CCn1c(CNc2ccc(C(=N)N)cc2F)nc2cc(C(=O)N(CCC(=O)O)c3ccc(F)c(Cl)c3)ccc21 |

These compounds were tested against T1, Prothrombin (assay: Inhibition of human thrombin preincubated for 10 mins using Ac-FVR-AMC as substrate by […] assay). Conditions: read-out: IC50.

| IC50 [nM] | Structure (SMILES) |
| --- | --- |
| 3.95 | Cn1c(CNc2ccc(C(=N)N)cc2)nc2cc(C(=O)N(CCC(=O)O)c3ccc(F)c(F)c3)ccc21 |
| 4.96 | Cn1c(CNc2ccc(C(=N)N)cc2)nc2cc(C(=O)N(CCC(=O)O)c3ccccc3C(F)(F)F)ccc21 |
| 2.61 | CCCCCCOC(=O)NC(=N)c1ccc(NCc2nc3cc(C(=O)N(CCC(=O)OCC)c4ccccn4)ccc3n2C)cc1 [DABIGATRAN ETEXILATE] |

Same assay, conditions: read-out: pIC50 (converted)

| IC50 [nM] | Structure (SMILES) |
| --- | --- |
| 3.98 | Cn1c(CNc2ccc(C(=N)N)cc2)nc2cc(C(=O)N(CCC(=O)O)c3ccc(F)c(F)c3)ccc21 |
| 5.01 | Cn1c(CNc2ccc(C(=N)N)cc2)nc2cc(C(=O)N(CCC(=O)O)c3ccccc3C(F)(F)F)ccc21 |
| 2.63 | CCCCCCOC(=O)NC(=N)c1ccc(NCc2nc3cc(C(=O)N(CCC(=O)OCC)c4ccccn4)ccc3n2C)cc1 [DABIGATRAN ETEXILATE] |
